According to patent US8722742B2, “Chemical compounds having antiviral activity against Dengue virus and other Flaviviruses” (Centro de Ingenieria Genetica y Biotecnologia, priority 2008, dated 2014):

system: DEN2 virus; experiment: Plaque inhibition assay in Vero cells; format: cell-based, Dengue virus serotype 2; conditions: Dengue virus, 120 h
Experimental: Vero cells were grown in 24-wells plates until the monolayer reached approximately 90% confluence and two washes of the monolayer were done with medium MEM without SFB. Preparations of DEN2 virus equivalent to a multiplicity of infection of 0.1 were preincubated in MEM medium with and without presence of chemical compounds (100 uM) for about 1 hour at room temperature. Then, the virus/compounds mixture and virus/control mixture were incubated with monolayers for 1 hour at 37° C. After finished incubation, the cells were washed again and incubated during 5 days at 37° C. in high-density medium (MEM supplemented with non-essential amino acids, SFB 1%, carboxymethylcellulose 1%) to facilitate formation of lysis plaques. Blue Black Naphtol 0.1% in sodium acetate 0.15 mol/L was used for staining. In each experiment two replics were tested for each point and three independent determinations were done. The percentage of infection inhibition was calculated according to the following expression: […]

Row | Compound | inhibition at 100 µM
1 | O=c1c2cc3c(=O)n(CCCn4ccnc4)c(=O)c3cc2c(=O)n1CCCn1ccnc1 | 0 to 30%
2 | O=C(CC1C(=O)c2ccccc2C1=O)Oc1ccc(-c2ccc(OC(=O)CN3C(=O)c4ccccc4C3=O)cc2)cc1 | 0 to 30%
3 | O=S(=O)(NCc1ccccc1)c1ccc(S(=O)(=O)NC2CCCCC2)cc1 [C-SIJ01002] | 70 to 100%
4 | O=S(=O)(NCc1ccccc1)c1ccc(S(=O)(=O)NC2CC2)cc1 [C-SIJ01003] | 30 to 100%
5 | O=S(=O)(NCc1ccc2c(c1)OCO2)c1ccc(S(=O)(=O)NC2CCCCC2)cc1 [C-SIJ01006] | 70 to 100%
6 | O=S(=O)(NCc1ccc2c(c1)OCO2)c1ccc(S(=O)(=O)NC2CC2)cc1 [C-SIJ01008] | 30 to 100%
7 | O=S(=O)(NCCC1=CCCCC1)c1ccc(S(=O)(=O)NCc2ccc3c(c2)OCO3)cc1 [C-SIJ01009] | 70 to 100%
8 | O=S(=O)(NCc1ccco1)c1ccc(S(=O)(=O)NC2CCCCC2)cc1 [C-SIJ01020] | 70 to 100%
9 | CC(=O)N1CCN(S(=O)(=O)c2ccc(S(=O)(=O)NC3CCCCC3)cc2)CC1 [C-SIJ01023] | 70 to 100%
10 | CCCCNS(=O)(=O)c1ccc(S(=O)(=O)N2CCN(C(C)=O)CC2)cc1 [C-SIJ01026] | 30 to 100%
11 | O=S(=O)(NCCc1ccccc1)c1ccc(S(=O)(=O)N2CCCCC2)cc1 [C-SIJ01031] | 70 to 100%
12 | O=S(=O)(NCc1ccc(F)cc1)c1ccc(S(=O)(=O)N2CCCCC2)cc1 [C-SIJ01033] | 30 to 100%
13 | O=S(=O)(NCC1CC1)c1ccc(S(=O)(=O)N2CCCCC2)cc1 [C-SIJ01034] | 30 to 100%
14 | O=S(=O)(NC(c1ccccc1)c1ccccc1)c1ccc(S(=O)(=O)N2CCCCC2)cc1 [C-SIJ01039] | 70 to 100%
15 | O=S(=O)(NCCO)c1ccc(S(=O)(=O)N2CCCCC2)cc1 [C-SIJ01042] | 70 to 100%
16 | CC(C)CNS(=O)(=O)c1ccc(S(=O)(=O)N2C(C)CCCC2C)cc1 (stereo not shown) [C-SIJ01045] | 30 to 100%
17 | CC1CCCC(C)N1S(=O)(=O)c1ccc(S(=O)(=O)NCCc2ccncc2)cc1 (stereo not shown) [C-SIJ01047] | 70 to 100%
18 | CC1CCCC(C)N1S(=O)(=O)c1ccc(S(N)(=O)=O)cc1 (stereo not shown) [C-SIJ01051] | 30 to 100%
19 | COC(CNS(=O)(=O)c1ccc(S(=O)(=O)N2CCOCC2)cc1)OC [C-SIJ01056] | 70 to 100%
20 | CC(C)(C)C(=O)CNS(=O)(=O)c1ccc(S(=O)(=O)N2CCOCC2)cc1 [C-SIJ01062] | 70 to 100%
21 | O=S(=O)(Nc1ccccc1OC(F)F)c1ccc(S(=O)(=O)N2CCOCC2)cc1 [C-SIJ01066] | 70 to 100%
22 | O=C(CN1C(=O)c2ccccc2S1(=O)=O)Nc1ccc(S(=O)(=O)N2CCCCCC2)cc1 [C-SIJ04078] | 70 to 100%
23 | CCN(Cc1ccccc1)S(=O)(=O)c1ccc(S(=O)(=O)N2CCOCC2)cc1 [C-SIJ06097] | 70 to 100%
24 | NS(=O)(=O)c1ccc(S(=O)(=O)N2CCOCC2)cc1 [C-SIJ06099] | 30 to 100%
25 | O=CN1CCN(S(=O)(=O)c2ccc(S(=O)(=O)N3CCOCC3)cc2)CC1 [C-SIJ06102] | 30 to 100%
26 | CS(=O)(=O)N1CCN(S(=O)(=O)c2ccc(S(=O)(=O)N3CCOCC3)cc2)CC1 [C-SIJ06103] | 70 to 100%
27 | O=C(O)[C@H]1CCCN(S(=O)(=O)c2ccc(S(=O)(=O)N3CCCCC3)cc2)C1 [C-SIJ06111] | 70 to 100%
28 | COc1ccc(/C=N/NC(=O)Cc2ccc([N+](=O)[O-])cc2)cc1OC [C-SIJ12143] | 70 to 100%
